# In US7807688B2, “Tri-heterocyclic compounds and a pharmaceutical comprising them as an active ingredient” (Ono Pharmaceutical Co., Ltd., priority 2000, dated 2010):
# Tested on: male SD rats
# Assay: Measurement of antianxiety activity using the elevated plus-maze
# Format: in vivo, rat
# Conditions: 3 and 10 mg/kg, 30 minutes after administration, 5 minutes period
# Description: Two arms (open and closed) of equal width and length (50 cm×10 cm), which crossed at a right angle to form a plus maze, were elevated to a height 50 cm above the ground level. […] Lighting on both ends of the open arm was maintained at constant illumination. Thirty minutes after administration of various doses of test-compounds (5 mL/kg), male SD rats were placed in the center of the plus maze. The time spent(s) in the open arms and the number of entries into the respective arms were measured within a 5 minutes period. The investigation personnel for measuring the indexes positioned at a fixed location during the course of the experiment.
smiles,measurement,setting,value
"CCC(CC)Nc1c2c(nc3c(-c4ccc(OC)cc4Cl)c(C)nn13)CCC2.Cl [Example 2(78), 8-(3-pentylamino)-2-methyl-3-(2-chloro-4-methoxyphenyl)-6,7-dihydro-5H-cyclopenta[d]pyrazolo[1,5-a]pyrimidine hydrochloride]",time spent in the open arms,FIG. 1,extend significantly
same,number of entries into the open arms,FIG. 2,increased significantly
